Source: patent US20230338337A1, “BIOMARKERS FOR CANCER THERAPY USING MDM2 ANTAGONISTS” (OTSUKA PHARMACEUTICAL CO., LTD., priority 2019, published 2023)
Where two headings read alike, the source gives them in different places.

Assays:
SJSA-1 = experiment: Protocol B: CellTiter-Glo cell viability assay; conditions: for IC50: read-out: SJSA1 IC50 (μM) (Protocol B)
[1] = target: MDM2-p53 interaction (in vitro translated MDM2) (Homo sapiens (Human), UniProt Q00987); experiment: MDM2-p53 interaction 96-well plate binding assay (ELISA)
Sequence of MDM2-p53 interaction (in vitro translated MDM2) (Q00987 whole entry): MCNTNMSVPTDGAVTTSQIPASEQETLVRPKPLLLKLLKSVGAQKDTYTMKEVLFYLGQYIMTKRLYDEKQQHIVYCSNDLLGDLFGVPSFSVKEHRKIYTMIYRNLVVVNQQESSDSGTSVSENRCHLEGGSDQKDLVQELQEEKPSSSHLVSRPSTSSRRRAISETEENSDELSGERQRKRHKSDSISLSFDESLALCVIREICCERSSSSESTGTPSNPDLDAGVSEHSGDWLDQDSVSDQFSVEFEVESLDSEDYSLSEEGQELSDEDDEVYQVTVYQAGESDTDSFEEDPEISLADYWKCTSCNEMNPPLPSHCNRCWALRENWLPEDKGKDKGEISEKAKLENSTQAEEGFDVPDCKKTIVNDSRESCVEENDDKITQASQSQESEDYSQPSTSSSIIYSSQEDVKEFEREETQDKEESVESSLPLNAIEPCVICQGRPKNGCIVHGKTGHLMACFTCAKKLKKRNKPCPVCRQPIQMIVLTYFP

In the case of “(3R)-3-(4-chlorophenyl)-4-fluoro-6-[1-hydroxy-1-(1-methyl-1H-pyrazol-4-yl)ethyl]-3-[(1-hydroxycyclopropyl)methoxy]-2-[(5-methoxypyridin-2-yl)methyl]-2,3-dihydro-1H-isoindol-1-one [Example 347]”, the IC50 (SJSA-1; Protocol B) is reported as 1.7 µM and the “MDM2 % at concentration” value ([1]; at 0.10 μM) is reported as 63%@0.10.
“(3R)-3-(4-Chlorophenyl)-2-[(5-chloropyrimidin-2-yl)methyl]-4-fluoro-6-[1-hydroxy-1-(piperidin-4-yl)propyl]-3-[(3S)-oxolan-3-yloxy]-2,3-dihydro-1H-isoindol-1-one [Example 448]” was tested, and the IC50 (SJSA-1; Protocol B) was 0.86 µM and the “MDM2 % inhibition at 0.0010” value ([1]; at 0.0010 μM) was 84%@0.0010.
For “1-({[(1R)-1-(4-chlorophenyl)-2-[(5-chloropyrimidin-2-yl)methyl]-7-fluoro-5-[1-hydroxy-1-(1-methyl-1H-imidazol-4-yl)propyl]-3-oxo-2,3-dihydro-1H-isoindol-1-yl]oxy}methyl)cyclopropane-1-carboxamide [Example 485]”, the IC50 (SJSA-1; Protocol B) was 4.2 µM and the “MDM2 % inhibition at 0.10” value ([1]; at 0.10 μM) was 58%@0.10.
In the case of “(3R)-3-(4-chlorophenyl)-2-[(5-chloropyrimidin-2-yl)methyl]-4-fluoro-6-[1-(4-fluoropiperidin-4-yl)-1-hydroxypropyl]-3-[cis-3-hydroxycyclobutoxy]-2,3-dihydro-1H-isoindol-1-one [Example 542]”, the IC50 (SJSA-1; Protocol B) is reported as 3.1 µM and the “MDM2 % inhibition at 0.010” value ([1]; at 0.010 μM) is reported as 57%@0.010.
“2-{[(1R)-1-(4-chlorophenyl)-7-fluoro-5-[(1S)-1-(4-fluorooxan-4-yl)-1-hydroxypropyl]-3-oxo-1-[(3S)-oxolan-3-yloxy]-2,3-dihydro-1H-isoindol-2-yl]methyl}pyrimidine-5-carbonitrile [Example 508]” was tested, and the “SJSA1 (Protocol B) % inhibition at 10” value (SJSA-1; Protocol B, at 10 μM) was 11% at 10 and the “MDM2 % inhibition at 0.10” value ([1]; at 0.10 μM) was 17%@0.10.
“(3R)-3-(4-chlorophenyl)-2-[(5-chloropyrimidin-2-yl)methyl]-4-fluoro-3-[(3-fluorooxetan-3-yl)methoxy]-6-[2-hydroxy-1-(piperazin-1-yl)butan-2-yl]-2,3-dihydro-1H-isoindol-1-one [Example 538]” was tested, and the IC50 (SJSA-1; Protocol B) was 2.2 µM and the “MDM2 % inhibition at 0.030” value ([1]; at 0.030 μM) was 44%@0.030.
For “(3R)-2-[(5-chloro-1-oxo-1λ^5-pyridin-2-yl)methyl]-3-(4-chlorophenyl)-4-fluoro-6-[1-hydroxy-1-(1-methyl-1H-pyrazol-4-yl)ethyl]-3-{[1-(hydroxymethyl)cyclopropyl]methoxy}-2,3-dihydro-1H-isoindol-1-one [Example 407]”, the IC50 (SJSA-1; Protocol B) was 0.58 µM and the “MDM2 % at concentration” value [1] was 62%@0.0010.
“1-({[(1R)-1-(4-chlorophenyl)-7-fluoro-2-[(5-fluoropyridin-2-yl)methyl]-5-[1-hydroxy-1-(1-methyl-1H-pyrazol-4-yl)ethyl]-3-oxo-2,3-dihydro-1H-isoindol-1-yl]oxy}methyl)cyclopropane-1-carboxamide [Example 209]” was tested, and the IC50 (SJSA-1; Protocol B) was 0.45 µM.
In the case of “2-{[(1R)-1-(4-chlorophenyl)-7-fluoro-5-[1-hydroxy-1-(1-methyl-1H-imidazol-4-yl)propyl]-3-oxo-1-{[trans-3-hydroxycyclobutyl]methoxy}-2,3-dihydro-1H-isoindol-2-yl]methyl}pyrimidine-5-carbonitrile [Example 484]”, the IC50 (SJSA-1; Protocol B) is reported as 4.9 µM.
“1-({[(1R)-2-[(4-chloro-2-methanesulfonylphenyl)methyl]-1-(4-chlorophenyl)-7-fluoro-5-[1-hydroxy-1-(1-methyl-1H-pyrazol-4-yl)ethyl]-3-oxo-2,3-dihydro-1H-isoindol-1-yl]oxy}methyl)cyclopropane-1-carboxamide [Example 74]” was tested, and the IC50 (SJSA-1; SJSA-1, CellTiter-Glo, 72 hrs) was 1 µM.
“(3S)-3-(4-chlorophenyl)-3-[(1R)-1-(4-chlorophenyl)-5-(1-cyclobutyl-1-hydroxyethyl)-7-fluoro-1-methoxy-3-oxo-2,3-dihydro-1H-isoindol-2-yl]propanoic acid [Example 103]” showed an IC50 (SJSA-1; SJSA-1, CellTiter-Glo, 72 hrs) of 0.8 µM.
